Residues, ends and D or L forms follow the SMILES beside them. *: point of attachment. Cbz = O=C(OCc1ccccc1)*; CH2F = FC*
Legend:
[1] = system: G93A-SOD1 mice; details: other reported pharmacological treatments (literature); cited from earlier work
[2] = system: JNK; experiment: Western blot for JNK activation (p-JNK) in APP-CHO cells; type: cell-based, Chinese Hamster; details: 10 μM, 6 hr
Description: (§1) APP-CHO cells were treated with 10 μM metal-BTSC complexes for 6 hr and cell lysates examined for activation of PI3K and MAPK signal pathways.
(§2) APP-CHO cells were treated with 10 μM metal-BTSC complexes for 6 hr. Cells were extracted into Phosphosafe (Novagen) lysis buffer and proteins separated by gel-electrophoresis on 12% tris-glycine gels. Proteins were transferred to PVDF membranes and blocked with milk powder for 1 hr. Blots were then probed for total and phosphorylated forms of Akt, JNK and GSK3 using antibodies from Cell Signaling Technologies. After detection with secondary antisera (HRP-labelled), blots were analyzed for signals using chemiluminescence analysis on a GeneGnome image scanner. Activation of PI3K is shown by increased levels of phosphorylated Akt (p-Akt). Activated JNk is shown by increased p-JNK. Increased levels of deactivated GSK3 is shown by increased p-GSK3.

[3] = system: PI3K (Akt phosphorylation); experiment: Western blot for PI3K activation (Akt phosphorylation) in APP-CHO cells; type: cell-based, Chinese Hamster; details: 10 μM, 6 hr
Description: as §1, §2

[4] = system: Aβ1-40; experiment: Extracellular Aβ1-40 in conditioned medium of APP-CHO cells (ELISA); type: cell-based, Chinese Hamster; details: 6 hr; for effect on Aβ1-40 levels at lower dose: 1 μM
Description: […] treatment regimes were used namely a control, 1 μM, 5 μM, 10 μM, 25 μM and 50 μM (FIG. 3). APP-transfected CHO cells were treated with each of the doses of [Cu(GTSM)] for 6 hr in serum-free medium and conditioned medium was then collected and assayed for Aβ1-40 peptide by routine […].
Five treatment regimes were used namely a control, 1 ? M, 5 ? M, 10 ? M, 25 ? M and 50 ? M (FIG. 4). APP-transfected CHO cells were treated with each of the doses of [Zn(BTSC)] for 6 hr in serum-free medium and conditioned medium was then collected and assayed for Aβ1-40 peptide by routine Aβ ELISA.
Generation of APP-transfected Chinese Hamster Ovary (CHO) APP-CHO cells were generated by expressing the 695-amino acid APP cDNA in the pIRESpuro2 expression vector (Clontech, Mountain View, Calif., USA). Cells were transfected using Lipofectamine 2000 and cultured in RPMI-1640 media supplemented with 1 mM glutamine and 10% fetal bovine serum (all from Invitrogen, Mount Waverley, Victoria, Australia). Transfected cells were selected and maintained using 7.5 μg/ml puromycin (Sigma-Aldrich).
Treatment of cells with Complexes. APP-CHO cells were passaged at a ratio of 1:5 and grown in 6 well plates for 3 days before experiments. Compounds were prepared as a 10 mM stock solution in DMSO and added to serum-free RPMI medium supplemented with puromycin. Medium was briefly mixed by aspiration prior to addition to cells. Control cultures were treated with vehicle (DMSO) alone. Cultures were incubated for 6 hr and conditioned media taken for measurement of […] levels by ELISA.
Double antibody capture enzyme-linked immunosorbent assay (ELISA) for Aβ detection. Aβ levels were determined in culture medium using the 384 well Aβ1-40 ELISA protocol. 384 well plates were coated with monoclonal antibody (mAb) G2-10 in carbonate-bicarbonate coating buffer (pH 9.6) for Aβ1-40 detection. The plates were left to incubate overnight at 4° C. with rocking. The plates were then washed three times with PBST at RT with rocking and the solution discarded after each wash. Then 100 μL of 0.5% (w/v) hydrolyzed casein in PBS (pH 7.4) was added to each well and left to incubate for 2 hr at 37° C. to prevent non-specific binding. The plates were then washed three times with PBST at RT with rocking. 20 ng of biotinylated mAb WO2 (epitope at Aβ5-8) was added to each well of the plates (10 μL/well at […]). 50 μL/well of Aβ1-40 standard peptide samples (MHRI, Melbourne, Australia), cell culture medium samples and the blanks were added. The plates were left to incubate overnight at 4° C. with rocking. The plates were washed nine times with PBST at RT with rocking. 25 μL streptavidin-labelled europium was added at a dilution of 1:1000. Plates were then washed ten times with PBST where the 9th and 10th wash was left on for 5 min before discarding. To develop the plates 80 μL of enhancement solution was added to each well and plates were read in a WALLAC Victor^2 plate reader with excitation (Ex) at 340 nm and emission (Em) at 613 nm. Aβ1-40 peptide standards and samples were assayed in triplicate. The values obtained from the triplicate wells were used to calculate the […] concentration (expressed as ng/mL) based on the standard curve generated on each plate and are given in Table 3.
APP-CHO cells were treated with 10 μM [Zn(ATSE)] with or without specific inhibitors of PI3K (LY294002), JNK (SP600125) or p38 (SB203580) (25 μM of each) for 6 hr and conditioned medium analyzed for levels of Aβ1-40 by routine ELISA.

[5] = system: ERK, GSK3 and JNK; experiment: Downstream phosphorylation of ERK, GSK3 and JNK in U87MG-EGFR cells (Western blot); type: cell-based; details: 25 μM CuGTSM plus 10 μM PD153035; not completely ablated
Description: A study was carried out to determine if kinase pathways modulated by CuGTSM were mediated by activation of EGFR. This was done by treating U87MG-EGFR cells with 25 μM DMSO, CuGTSM, CuGTSM plus 10 μM PD153035 (EGFR inhibitor), or 10 μM PD153035 alone. The activation of ERK, GSK3 and JNK was then determined by Western blot.

[6] = system: EGFR; experiment: EGFR phosphorylation (tyr1068) in U87MG-EGFR cells (Western blot); type: cell-based; details: added to CuGTSM-treated cells (25 μM CuGTSM)
Description: Transfected U87MG-EGFR cells were treated with 25 μM CuGTSM or DMSO as vehicle control for 5 hr and EGFR phosphorylation (tyr1068) determined by Western blot. Antisera to EGFRtyr1068 was routinely used as this is one of the critical tyrosine residues involved in EGFR activation and downstream signaling. It is also routinely reported in the literature on EGFR activation.

[7] = system: GSK3; experiment: Western blot for GSK3 phosphorylation and expression in APP-CHO cells; type: cell-based, Chinese Hamster; details: 10 μM, 6 hr
Description: as §1, §2

[8] = system: APP-transfected CHO cells; experiment: Cellular zinc uptake of Zn-BTSC complexes (ICP-MS), with or without Cu2+; type: cell-based, Chinese Hamster; details: 6 hr
Description: It was known that copper can transmetallate [Zn(BTSC)] complexes. Therefore, if [Zn(BTSC)] complexes were administered to the culture medium in the presence of exogenous Cu^2+, we would expect [Cu(BTSC)] complexes to form. To examine this, cells were exposed to 10 μM [Zn(ATSE)] or [Zn(ATSP)] with or without 5-50 μM Cu^2+ for 6 hr.
Supernatant was discarded and cell pellets frozen at −70° C. until metal levels were determined by inductively-coupled plasma mass spectrometry (ICP-MS) at the Department of Pathology, University of Melbourne. […] [Zn(ATSM)] and [Zn(ATSE)] induced 8.2±0.25 and 9.8±0.9-fold increases in cellular Zn levels respectively when compared to untreated controls (FIG. 2).
To examine this, cells were exposed to 10 μM [Zn(ATSE)] or [Zn(ATSP)] with or without 5-50 μM Cu^2+ for 6 hr. Co-treatment of cells with Cu and the Zn-BTSC complexes reduced the level of Zn uptake compared to Zn-BTSC alone (FIG. 5).

Compound: CCN1C=CN(CC)C1=C1C2=NC(=C(c3n(CC)cc[n+]3CC)C3=NC(=C(c4n(CC)cc[n+]4CC)c4ccc([n-]4)C(c4n(CC)cc[n+]4CC)=C4C=CC1=N4)C=C3)C=C2.[Cl-].[Cl-].[Cl-].[Cl-].[Cl-].[Mn+3] [AEOL 10150]
- Increased Life Span [1]: 20 days

Compound: CO/N=C(\C(=O)N[C@@H]1C(=O)N2C(C(=O)O)=C(CSc3nc(=O)c(=O)[nH]n3C)CS[C@H]12)c1csc(N)n1 [Ceftriaxone]
- Increased Life Span [1]: 10 days

Compound: CN(CC(=O)O)C(=N)N [Creatine]
- Increased Life Span [1]: 20 days

Compound: CCNC1=N[N+]2=C(C)C(C)=[N+]3N=C(NCC)[S][Cu-2]23[S]1 [CuATSE]
- activation of JNK [2]: did not induce activation
- activation of PI3K (Akt phosphorylation) [3]: did not induce activation

Compound: CC(=N\NC([S-])=Nc1ccccc1)/C(C)=N/NC([S-])=Nc1ccccc1.[Cu+2] [CuATSP]
- activation of JNK [2]: did not induce activation
- activation of PI3K (Akt phosphorylation) [3]: did not induce activation

Compound: CNC(=S)NN=CC=NNC(=S)NC [GTSMH2]
- effect on extracellular Aβ1-40 levels ([4]; 1-50 μM, serum-free medium): very small reduction

Compound: COc1cc2ncnc(Nc3cccc(Br)c3)c2cc1OC [PD153035]
- CuGTSM-induced phosphorylation of JNK, GSK3 and ERK [5]: decrease
- effect on CuGTSM-induced activation of EGFR [6]: inhibited activation

Compound: Nc1nc2ccc(OC(F)(F)F)cc2s1 [Riluzole]
- Increased Life Span [1]: 10 to 15 days

Compound: C[S+]([O-])c1ccc(-c2nc(-c3ccncc3)c(-c3ccc(F)cc3)[nH]2)cc1 (stereo not shown) [SB203580, reference compound]
- effect of kinase inhibitor on the loss of Aβ by [Zn(ATSE)] ([4]; 25 μM inhibitor with 10 μM [Zn(ATSE)]): no effect

Compound: CCNC1=NN=C(C)C(C)=NN=C(NCC)[S][Zn][S]1 [[Zn(ATSE)]]
- GSK3 expression [7]: increased
- phosphorylation (de-activation) of GSK3 [7]: induced down-stream phosphorylation
- fold increase in cellular zinc levels ([8]; 10 μM complex alone): 9.7±0.7 fold
- fold increase in intracellular zinc ([8]; 10 μM complex in the presence of 10 μM Cu2+): 2.9±0.3 fold
- fold increases in cellular Zinc levels ([8]; APP-CHO cells, 1-50 μM, vs untreated controls): 9.8±0.9 fold
- activation of JNK [2]: induced activated
- effect on Aβ1-40 levels at lower dose [4]: greater reductions
- effect on Aβ1-40 levels at lower dose ([4]; listed as Zn-ATSE): inhibited
- activation of PI3K (Akt phosphorylation) [3]: induced activated

Compound: CC1=[N+]2N=C(Nc3ccccc3)[S][Zn]23[S]C(Nc2ccccc2)=N[N+]3=C1C [[Zn(ATSP)]]
- GSK3 expression [7]: small increase
- activation of JNK [2]: did not induce activation
- activation of PI3K (Akt phosphorylation) [3]: did not induce activation

Compound: CCNC1=NN=C2CCCCC2=NN=C(NCC)[S][Zn][S]1 [[Zn(ChexTSE)]]
- effect on Aβ1-40 levels at lower dose [4]: greater reductions
- effect on Aβ1-40 levels at lower dose ([4]; listed as Zn-Chex TSE): inhibited

Compound: COC(=O)C[C@H](NC(=O)[C@H](C)NC(=O)[C@@H](NC(=O)OCc1ccccc1)C(C)C)C(=O)CF [zVAD-fink] (Cbz-Val-Ala-Asp(OMe)-CH2F)
- Increased Life Span [1]: 27 days

Compound: Vitamin E
- Increased Life Span [1]: No effect

Source: patent US11123350B2, “Metal delivery agents and therapeutic uses of the same” (THE UNIVERSITY OF MELBOURNE, priority 2006, dated 2021)
